Assay results from ChEMBL document CHEMBL2439971, “Design, synthesis and antiproliferative evaluation of fluorenone analogs with DNA topoisomerase I inhibitory properties” (Bioorg Med Chem, 2013).

Assays:
NCI-H522 = assay: Cytotoxicity against human NCI-H522 cells at 10 uM after 48 hrs by sulforhodamine B assay relative to control; assay type: functional
CCRF-CEM = assay: Cytotoxicity against human CCRF-CEM cells at 10 uM after 48 hrs by sulforhodamine B assay relative to control; assay type: functional
HL-60(TB) = assay: Cytotoxicity against human HL-60(TB) cells after 48 hrs by sulforhodamine B assay; assay type: functional; details: HL-60, 48 h
HOP-92 = assay: Cytotoxicity against human HOP92 cells after 48 hrs by sulforhodamine B assay; assay type: functional; details: HOP-92, 48 h
TK-10 [1] = assay: Cytotoxicity against human TK10 cells at 10 uM after 48 hrs by sulforhodamine B assay relative to control; assay type: functional
SN12C = assay: Cytotoxicity against human SN12C cells after 48 hrs by sulforhodamine B assay; assay type: functional
ACHN [2] = assay: Cytotoxicity against human ACHN cells after 48 hrs by sulforhodamine B assay; assay type: functional
K562 = assay: Cytotoxicity against human K562 cells after 48 hrs by sulforhodamine B assay; assay type: functional; details: K562, 48 h
BT-549 [3] = assay: Cytotoxicity against human BT549 cells after 48 hrs by sulforhodamine B assay; assay type: functional; details: BT-549, 48 h
SK-OV-3 = assay: Cytotoxicity against human SKOV3 cells after 48 hrs by sulforhodamine B assay; assay type: functional; details: SK-OV-3, 48 h
HOP-62 = assay: Cytotoxicity against human HOP62 cells after 48 hrs by sulforhodamine B assay; assay type: functional; details: HOP-62, 48 h
OVCAR-4 [4] = assay: Cytotoxicity against human OVCAR4 cells at 10 uM after 48 hrs by sulforhodamine B assay relative to control; assay type: functional
NCI/ADR-RES = assay: Cytotoxicity against human NCI/ADR-RES cells after 48 hrs by sulforhodamine B assay; assay type: functional
T47D = assay: Cytotoxicity against human T47D cells after 48 hrs by sulforhodamine B assay; assay type: functional
SR = assay: Cytotoxicity against human SR cells at 10 uM after 48 hrs by sulforhodamine B assay relative to control; assay type: functional
U-251 = assay: Cytotoxicity against human U251 cells at 10 uM after 48 hrs by sulforhodamine B assay relative to control; assay type: functional
UACC-62 [5] = assay: Cytotoxicity against human UACC62 cells at 10 uM after 48 hrs by sulforhodamine B assay relative to control; assay type: functional
[6] = Cytotoxicity against human Hs 578T cells at 10 uM after 48 hrs by sulforhodamine B assay relative to control; assay type: functional
ACHN [7] = assay: Cytotoxicity against human ACHN cells at 10 uM after 48 hrs by sulforhodamine B assay relative to control; assay type: functional
OVCAR-3 = assay: Cytotoxicity against human OVCAR3 cells at 10 uM after 48 hrs by sulforhodamine B assay relative to control; assay type: functional
BT-549 [8] = assay: Cytotoxicity against human BT549 cells at 10 uM after 48 hrs by sulforhodamine B assay relative to control; assay type: functional
[9] = target: DNA topoisomerase 1 (Homo sapiens) (UniProt P11387); assay: Inhibition of recombinant human DNA topoisomerase 1-mediated relaxation of supercoiled pHOT DNA after 45 mins by agarose gel electrophoresis
DNA topoisomerase 1 (Homo sapiens), sequence (P11387 whole entry): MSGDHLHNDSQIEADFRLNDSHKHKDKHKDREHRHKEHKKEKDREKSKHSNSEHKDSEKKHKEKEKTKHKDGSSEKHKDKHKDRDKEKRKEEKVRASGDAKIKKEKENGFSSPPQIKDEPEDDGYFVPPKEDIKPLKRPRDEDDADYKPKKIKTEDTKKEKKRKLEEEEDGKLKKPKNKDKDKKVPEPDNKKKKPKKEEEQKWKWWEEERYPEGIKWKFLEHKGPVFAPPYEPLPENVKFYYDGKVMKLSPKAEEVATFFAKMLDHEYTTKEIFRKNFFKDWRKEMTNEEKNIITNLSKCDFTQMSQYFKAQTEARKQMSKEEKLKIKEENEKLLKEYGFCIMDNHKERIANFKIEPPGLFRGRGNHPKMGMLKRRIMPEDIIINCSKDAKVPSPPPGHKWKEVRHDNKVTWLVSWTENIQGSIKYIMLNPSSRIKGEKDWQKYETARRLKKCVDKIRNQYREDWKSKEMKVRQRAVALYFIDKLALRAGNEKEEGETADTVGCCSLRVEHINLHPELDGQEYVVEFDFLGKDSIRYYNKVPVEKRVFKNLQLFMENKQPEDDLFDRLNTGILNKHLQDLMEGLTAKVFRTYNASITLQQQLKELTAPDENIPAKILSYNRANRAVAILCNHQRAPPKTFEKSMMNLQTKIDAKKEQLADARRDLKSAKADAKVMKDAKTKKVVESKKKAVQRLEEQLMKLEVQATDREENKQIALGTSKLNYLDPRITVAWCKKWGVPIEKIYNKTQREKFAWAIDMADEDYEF

MDA-MB-468 = assay: Cytotoxicity against human MDA-MB-468 cells after 48 hrs by sulforhodamine B assay; assay type: functional; details: MDA-MB-468, 48 h
SNB-19 = assay: Cytotoxicity against human SNB19 cells at 10 uM after 48 hrs by sulforhodamine B assay relative to control; assay type: functional
UACC-62 [10] = assay: Cytotoxicity against human UACC62 cells after 48 hrs by sulforhodamine B assay; assay type: functional; details: UACC-62, 48 h
OVCAR-8 [11] = assay: Cytotoxicity against human OVCAR8 cells at 10 uM after 48 hrs by sulforhodamine B assay relative to control; assay type: functional
UO-31 = assay: Cytotoxicity against human UO31 cells after 48 hrs by sulforhodamine B assay; assay type: functional; details: UO-31, 48 h
OVCAR-4 [12] = assay: Cytotoxicity against human OVCAR4 cells after 48 hrs by sulforhodamine B assay; assay type: functional; details: OVCAR-4, 48 h
SNB-75 = assay: Cytotoxicity against human SNB75 cells at 10 uM after 48 hrs by sulforhodamine B assay relative to control; assay type: functional
IGROV-1 = assay: Cytotoxicity against human IGROV1 cells at 10 uM after 48 hrs by sulforhodamine B assay relative to control; assay type: functional
A549 = assay: Cytotoxicity against human A549 cells at 10 uM after 48 hrs by sulforhodamine B assay relative to control; assay type: functional
NCI-H23 = assay: Cytotoxicity against human NCI-H23 cells at 10 uM after 48 hrs by sulforhodamine B assay relative to control; assay type: functional
OVCAR-5 = assay: Cytotoxicity against human OVCAR5 cells at 10 uM after 48 hrs by sulforhodamine B assay relative to control; assay type: functional
SF-295 = assay: Cytotoxicity against human SF295 cells after 48 hrs by sulforhodamine B assay; assay type: functional; details: SF-295, 48 h
KM12 = assay: Cytotoxicity against human KM12 cells at 10 uM after 48 hrs by sulforhodamine B assay relative to control; assay type: functional
OVCAR-8 [13] = assay: Cytotoxicity against human OVCAR8 cells after 48 hrs by sulforhodamine B assay; assay type: functional; details: OVCAR-8, 48 h
TK-10 [14] = assay: Cytotoxicity against human TK10 cells after 48 hrs by sulforhodamine B assay; assay type: functional; details: TK-10, 48 h
Malme-3M = assay: Cytotoxicity against human MALME-3M cells at 10 uM after 48 hrs by sulforhodamine B assay relative to control; assay type: functional
SF-539 = assay: Cytotoxicity against human SF539 cells at 10 uM after 48 hrs by sulforhodamine B assay relative to control; assay type: functional
CAKI-1 = assay: Cytotoxicity against human CAKI-1 cells after 48 hrs by sulforhodamine B assay; assay type: functional; details: CAKI-1, 48 h
[15] = read-out: LC50 (the source's name)

For `CCCCNCC(=O)Nc1ccc2c(c1)C(=O)c1cc(NC(=O)CNCCCC)ccc1-2`, the Activity (NCI-H522) was -50.74%, the Activity (CCRF-CEM) was -35.23% and the GI50 (HL-60(TB)) was 1.1 µM. The TGI (HL-60(TB)) was 2.77 µM, the CC50 (HL-60(TB); [15]) was 6.98 µM and the GI50 (HOP-92) was 1.4 µM. The TGI (HOP-92) was 3.77 µM, the CC50 (HOP-92; [15]) was 10.6 µM and the Activity (TK-10 [1]) was 7.32%. It also gave a GI50 (SN12C) of 3.48 µM, a TGI (SN12C) of 14.6 µM and a CC50 (SN12C; [15]) of 41.2 µM. For the same molecule, the GI50 (ACHN [2]) was 1.4 µM, the TGI (ACHN [2]) was 4.14 µM and the CC50 (ACHN [2]; [15]) was 14.9 µM. It also gave a GI50 (K562) of 0.39 µM, a TGI (K562) of 1.56 µM and a CC50 (K562; [15]) of 5.7 µM. For the same molecule, the GI50 (BT-549 [3]) was 2.05 µM, the TGI (BT-549 [3]) was 6.05 µM and the CC50 (BT-549 [3]; [15]) was 24.6 µM. It also gave a GI50 (SK-OV-3) of 2.55 µM, a TGI (SK-OV-3) of 8.26 µM and a CC50 (SK-OV-3; [15]) of 29.5 µM. For the same molecule, the GI50 (HOP-62) was 2.07 µM, the TGI (HOP-62) was 6.74 µM and the CC50 (HOP-62; [15]) was 26 µM. The Activity (OVCAR-4 [4]) was -29.46%, the GI50 (NCI/ADR-RES) was 2.89 µM and the TGI (NCI/ADR-RES) was 10.9 µM. It also gave a CC50 (NCI/ADR-RES; [15]) of 41.4 µM, a GI50 (T47D) of 1.56 µM and a TGI (T47D) of 2.98 µM. It also gave a CC50 (T47D; [15]) of 5.71 µM, an Activity (SR) of -56.48% and an Activity (U-251) of -57.52%. It also gave an Activity (UACC-62 [5]) of 7.57%, an Activity [6] of 37.13% and an Activity (ACHN [7]) of 18.19%. The Activity (OVCAR-3) was -51.72%, the Activity (BT-549 [8]) was 69.3% and the INH [9] was under 5 µM. It also gave a GI50 (MDA-MB-468) of 1.85 µM, a TGI (MDA-MB-468) of 3.57 µM and a CC50 (MDA-MB-468; [15]) of 6.89 µM. It also gave an Activity (SNB-19) of 39.02%, a GI50 (UACC-62 [10]) of 1.61 µM and a TGI (UACC-62 [10]) of 3.03 µM. It also gave a CC50 (UACC-62 [10]; [15]) of 5.69 µM, an Activity (OVCAR-8 [11]) of 9.6% and a GI50 (UO-31) of 2.04 µM. For the same molecule, the TGI (UO-31) was 5.47 µM, the CC50 (UO-31; [15]) was 25.2 µM and the GI50 (OVCAR-4 [12]) was 2.06 µM. The TGI (OVCAR-4 [12]) was 5.02 µM, the CC50 (OVCAR-4 [12]; [15]) was 15.9 µM and the Activity (SNB-75) was 36.53%. It also gave an Activity (IGROV-1) of 46.91%, an Activity (A549) of -32.16% and an Activity (NCI-H23) of 70.39%. For the same molecule, the Activity (OVCAR-5) was 93.22%, the GI50 (SF-295) was 1.67 µM and the TGI (SF-295) was 3.47 µM. For the same molecule, the CC50 (SF-295; [15]) was 7.2 µM, the Activity (KM12) was 30.09% and the GI50 (OVCAR-8 [13]) was 2.19 µM. It also gave a TGI (OVCAR-8 [13]) of 6.16 µM, a CC50 (OVCAR-8 [13]; [15]) of 28.9 µM and a GI50 (TK-10 [14]) of 2.43 µM. It also gave a TGI (TK-10 [14]) of 6.67 µM, a CC50 (TK-10 [14]; [15]) of 24.1 µM and an Activity (Malme-3M) of -68.3%. It also gave an Activity (SF-539) of -82.99%, a GI50 (CAKI-1) of 1.79 µM and a TGI (CAKI-1) of 6.45 µM. For the same molecule, the CC50 (CAKI-1; [15]) was 26.9 µM.
